Experimental data from article PMC4628094, “In Vitro Assessment of Uptake and Lysosomal Sequestration of Respiratory Drugs in Alveolar Macrophage Cell Line NR8383” (Pharmaceutical Research, 2015).
Like-named read-outs stand apart in the source and are kept apart here. Marks after values point to notes of the source that are not given here. Values belong to the compound of their own block, whether it stands above or below them.

Key:
NR8383 cells [1] = system: NR8383 cells
NR8383 cells [2] = assay: LysoTracker Red (LTR) confocal assessment of lysosomal sequestration in NR8383; assay type: cell-based, rat; details: drug 5 μM co-incubated with 200 nM LTR, 1 h
NR8383 cells [3] = assay: Lysosomal sequestration studies in NR8383 with NH4Cl, monensin and nigericin; details: for Reduction in uptake clearance (%): preliminary optimisation; for % Reduction in Kp by NH4Cl: NH4Cl 20 mM
[4] = Physicochemical properties, experimental literature values (Table I); details: classification in Table I
[5] = system: NR8383 cell line and granule fraction (containing lysosomes); details: ref ([12]), cited from earlier work
NR8383 cells [6] = assay: Drug uptake in NR8383 at 37 and 4°C (CLuptake, CLdiff, Kp)
[7] = Uptake kinetics of clarithromycin in NR8383, two-step method; assay type: in vitro ADME, rat; details: rat, incubation media of NR8383 cells; NR8383 incubation media; read-out: fraction unbound in the media (fumed)
NR8383 cells [8] = assay: as above; assay type: in vitro ADME, rat; details: in the presence of NH4Cl
NR8383 cells [9] = assay: Accumulation (Kp) in NR8383 over a concentration range, two-site binding model; details: apparent saturable uptake equilibrium constant, two-site binding model, control
[10] = experimental value; ref ([21])-([30]) per drug, Table I; cited from earlier work
NR8383 cells [11] = details: NR8383, 5 μM drug, 5 min
NR8383 cell line = system: NR8383 cell line; parameters: method as in ref (11) (a number printed in a supplementary file, which may have a reference list of its own: not looked up in the article's list); details: NH4Cl 10 mM, drug 50 µM, 120 min; ref (11); cited from earlier work
[12] = system: Liver tissue slices from male Wistar rats; parameters: method as in ref (8) (a number printed in a supplementary file, which may have a reference list of its own: not looked up in the article's list); details: NH4Cl 20 mM, drug 5 µM, 60 min, ref (8); cited from earlier work
[13] = system: Lysosomes isolated from male Wistar rat liver; parameters: method as in ref (16) (a number printed in a supplementary file, which may have a reference list of its own: not looked up in the article's list); details: nigericin […], drug 1 µM, 20 min, ref (16), cited from earlier work
[14] = system: Brain slices from male Wistar rats; parameters: method as in ref (10) (a number printed in a supplementary file, which may have a reference list of its own: not looked up in the article's list); details: drug 5 µM, 60 min, ref (10), cited from earlier work
[15] = system: Liver tissue slices from male Wistar rats; parameters: method as in ref (9) (a number printed in a supplementary file, which may have a reference list of its own: not looked up in the article's list); details: NH4Cl 20 mM, drug 5 µM, 60 min, ref (9); cited from earlier work
[16] = system: isolated perfused lungs of rats; details: depending on concentration, ref ([37],[43],[44]); cited from earlier work
[17] = system: Primary rat cerebellar neurons; parameters: method as in ref (15) (a number printed in a supplementary file, which may have a reference list of its own: not looked up in the article's list); details: drug 10^-4 µM, 30 min, ref (15), cited from earlier work
[18] = system: Liver tissue slices from male Wistar rats; parameters: method as in ref (5) (a number printed in a supplementary file, which may have a reference list of its own: not looked up in the article's list); details: NH4Cl 20 mM, drug 5 µM, 60 min, ref (5); cited from earlier work
[19] = system: Lung granule fraction containing lysosomes from male Wistar rats; parameters: method as in ref (6) (a number printed in a supplementary file, which may have a reference list of its own: not looked up in the article's list); details: NH4Cl 10 mM, drug 1 µM, 10 min; ref (6); cited from earlier work
[20] = system: Liver tissue slices from male Wistar rats; parameters: method as in ref (14) (a number printed in a supplementary file, which may have a reference list of its own: not looked up in the article's list); details: monensin 10 µM, drug 5 µM, 60 min, ref (14); cited from earlier work
[21] = system: Lysosomes isolated from male Wistar rat liver; parameters: method as in ref (4) (a number printed in a supplementary file, which may have a reference list of its own: not looked up in the article's list); details: 10 min, ref (4), cited from earlier work
[22] = system: Lung tissue slices from male Wistar rats; parameters: method as in ref (8) (a number printed in a supplementary file, which may have a reference list of its own: not looked up in the article's list); details: NH4Cl 20 mM, drug 5 µM, 60 min, ref (8); cited from earlier work
[23] = system: Lung tissue slices from male Wistar rats; parameters: method as in ref (14) (a number printed in a supplementary file, which may have a reference list of its own: not looked up in the article's list); details: monensin 10 µM, drug 5 µM, 60 min, ref (14); cited from earlier work
[24] = system: Lung tissue slices from male Wistar rats; parameters: method as in ref (5) (a number printed in a supplementary file, which may have a reference list of its own: not looked up in the article's list); details: NH4Cl 20 mM, drug 5 µM, 60 min, ref (5); cited from earlier work
[25] = system: Lung tissue slices from male Wistar rats; parameters: method as in ref (9) (a number printed in a supplementary file, which may have a reference list of its own: not looked up in the article's list); details: NH4Cl 20 mM, drug 5 µM, 60 min, ref (9); cited from earlier work

Acid–base Property [4]: Base | Contribution of passive (%) (NR8383 cells [6]; NR8383, 5 μM, CLdiff relative to CLuptake): 0.53% | mean uptake of 5 μM clarithromycin across experiments (NR8383 cells [6]; control of individual experiments, n = 59): 5.50 ± 2.96 μl/min/10^6 cells | fraction unbound [7]: 0.93 ± 0.03 | total CLuptake from kinetic parameters (NR8383 cells [8]): 0.46 μL/min/10^6 cells | KU1 (NR8383 cells [9]): 1.18 ± 1.45 µM
Structure (SMILES): CC[C@H]1OC(=O)[C@H](C)[C@@H](O[C@H]2C[C@@](C)(OC)[C@@H](O)[C@H](C)O2)[C@H](C)[C@@H](O[C@@H]2O[C@H](C)C[C@H](N(C)C)[C@H]2O)[C@](C)(OC)C[C@@H](C)C(=O)[C@H](C)[C@@H](O)[C@]1(C)O [Clarithromycin]
cytotoxicity (LDH) compared to positive control (NR8383 cells [1]; drug 50 μM): < 3% | cytotoxicity (LDH) compared to positive control (NR8383 cells [1]; drug 100 μM): 10% | reduction in LTR accumulation (NR8383 cells [2]): 86% | Reduction in uptake clearance (%) (NR8383 cells [3]; 5 µM drug, + 10 mM NH4Cl): 85% | Reduction in uptake clearance (%) (NR8383 cells [3]; 5 µM drug, + 20 mM NH4Cl): 93% | Reduction in uptake clearance (%) (NR8383 cells [3]; 5 µM drug, + 50 mM NH4Cl): 94% | Reduction in uptake clearance (%) (NR8383 cells [3]; 20 µM drug, + 10 mM NH4Cl): 85% | Reduction in uptake clearance (%) (NR8383 cells [3]; 20 µM drug, + 20 mM NH4Cl): 89% | Reduction in uptake clearance (%) (NR8383 cells [3]; 20 µM drug, + 50 mM NH4Cl): 93% | % Reduction in Kp by NH4Cl (NR8383 cells [3]; NR8383, 5 μM drug): 84 ± 6.6 % | % Reduction in Kp by Monensin (NR8383 cells [3]; NR8383, 5 μM drug, monensin 5 μM, 5 min): 77 ± 8.5 % | % Reduction in Kp by Nigericin (NR8383 cells [3]; NR8383, 5 μM drug, nigericin 10 μM, 5 min): 82 ± 9.6 % | % Reduction in Kp by NH4Cl (NR8383 cells [3]; NR8383, 20 µM drug): 75 ± 8.3 % | % Reduction in CLuptake by Monensin (5 µM) (NR8383 cells [3]; NR8383, at 5 µM drug): 78 ± 8.0 % | % Reduction in CLuptake by NH4Cl (20 mM) (NR8383 cells [3]; NR8383, at 5 µM drug): 85 ± 7.5 % | % Reduction in CLuptake by Nigericin (10 µM) (NR8383 cells [3]; NR8383, at 5 µM drug): 84 ± 9.2 % | % Reduction in CLuptake by NH4Cl (20 mM) (NR8383 cells [3]; NR8383, at 20 µM drug): 78 ± 9.0 % | reduction of Kp and CLuptake in the presence of NH4Cl and monensin/nigericin (NR8383 cells [3]; NR8383, summary in Abstract): 59–85% | reduction in Kp in the presence of chemical agents (summary in Discussion) (NR8383 cells [3]; NR8383, NH4Cl, monensin, nigericin): ≥ 65% | Kp ([5]; NR8383, 10 min, 37°C, initial concentration 50 μM): ~ 16 | reduction in Kp at 4°C compared to 37°C ([5]; NR8383): 90% | reduction of amount of drug in the cells by NH4Cl ([5]; NR8383): approximately half | reduction of fraction of drug in the granules compartment (containing the lysosomes) by NH4Cl ([5]; NR8383): 75% | Km (NR8383 cells [8]; active uptake): 28.5 µM | Vmax (NR8383 cells [8]; active uptake): 12.4 pmol/min/10^6 cells | LogD7.4 [10]: 1.57 | % Reduction in Kp by Monensin (NR8383 cells [11]; monensin 5 μM): 77% | % Reduction in Kp by Nigericin (NR8383 cells [11]; nigericin 10 μM): 82%

Structure (SMILES): CC[C@H]1OC(=O)[C@H](C)C(=O)[C@H](C)[C@@H](O[C@@H]2O[C@H](C)C[C@H](N(C)C)[C@H]2O)[C@](C)(OC)C[C@@H](C)C(=O)[C@H](C)[C@H]2N(CCCCn3cnc(-c4cccnc4)c3)C(=O)O[C@]12C [Telithromycin]
Reduction in total uptake (%) (NR8383 cell line): 80^b %

Structure (SMILES): CN(C)CCCN1c2ccccc2CCc2ccccc21 [Imipramine]
Reduction in total uptake (%) [12]: 57% | Reduction of total uptake (%) ([13]; relative to control with ATP): 99% | Reduction of total uptake (%) ([13]; relative to control without ATP): 93% | cytotoxicity (LDH) compared to positive control (NR8383 cells [1]; drug 50 μM): less than 1% | cytotoxicity (LDH) compared to positive control (NR8383 cells [1]; drug 100 μM): less than 1% | Reduction in total uptake (%) ([14]; NH4Cl 20 mM): 41% | Reduction of total uptake (%) ([14]; monensin 10 µM): 37% | Reduction in total uptake (%) [15]: 62% | estimated Kp [16]: 17–44 | Reduction of total uptake (%) ([17]; monensin 10 µM): 83% | Reduction of total uptake (%) ([17]; monensin […]): 50% | Reduction in total uptake (%) [18]: 58% | Reduction in total uptake (%) [19]: 31% | Reduction of total uptake (%) [20]: 48% | Reduction in total uptake (%) ([21]; NH4Cl 50 mM, drug 10^-4 µM): 70^b % | Reduction of total uptake (%) ([21]; nigericin 50 µM, drug 0.001 µM): 70^b % | Reduction in total uptake (%) [22]: 35% | Reduction of total uptake (%) [23]: 64% | KU1 (NR8383 cells [9]): 0.9 ± 0.3 µM | Reduction in total uptake (%) [24]: 59% | Reduction in total uptake (%) [25]: 49%
